Data published in the NIST ThermoML archive (doi:10.1021/je800110r).
Numbers after ± are expanded uncertainties.

Settings: 283.15 K, Liquid, Vibrating tube method

CCCCCCCCCC [decane]
Settings	mass density [kg/m3]
7092 kPa	742.4 ± 2
7106 kPa	742.5 ± 2
7121 kPa	742.6 ± 2
7134 kPa	742.5 ± 2
7192 kPa	742.7 ± 2
7205 kPa	742.5 ± 2
7258 kPa	742.6 ± 2
7275 kPa	742.6 ± 2
7296 kPa	742.6 ± 2
7315 kPa	742.8 ± 2
7327 kPa	742.7 ± 2
7342 kPa	742.7 ± 2
7357 kPa	742.7 ± 2
7374 kPa	742.7 ± 2
7387 kPa	742.8 ± 2
7404 kPa	742.6 ± 2
7420 kPa	742.9 ± 2
7435 kPa	742.8 ± 2
7452 kPa	742.7 ± 2
7466 kPa	742.7 ± 2
7484 kPa	742.8 ± 2
7505 kPa	742.8 ± 2
7518 kPa	742.8 ± 2
7534 kPa	742.8 ± 2
7548 kPa	742.7 ± 2
7567 kPa	742.9 ± 2
7581 kPa	742.8 ± 2
7595 kPa	742.8 ± 2
7611 kPa	742.9 ± 2
7628 kPa	742.9 ± 2
7643 kPa	742.9 ± 2
7658 kPa	742.9 ± 2
7697 kPa	743.1 ± 2
7710 kPa	743 ± 2
7722 kPa	743 ± 2
7735 kPa	743 ± 2
7783 kPa	743 ± 2
7795 kPa	743 ± 2
7814 kPa	743.1 ± 2
7830 kPa	742.9 ± 2
7845 kPa	743.1 ± 2
7855 kPa	743 ± 2
7867 kPa	743.1 ± 2
7879 kPa	743.1 ± 2
7891 kPa	743.1 ± 2
7903 kPa	743.1 ± 2
7915 kPa	743 ± 2
7926 kPa	743.1 ± 2
7942 kPa	743.2 ± 2
7957 kPa	743.2 ± 2
7975 kPa	743.1 ± 2
7991 kPa	743 ± 2
8004 kPa	743.1 ± 2
8018 kPa	743.1 ± 2
8033 kPa	743.2 ± 2
8045 kPa	743.2 ± 2
8060 kPa	743.2 ± 2
8078 kPa	743.1 ± 2
8091 kPa	743.2 ± 2
8112 kPa	743.4 ± 2
8127 kPa	743.2 ± 2
8143 kPa	743.3 ± 2
8159 kPa	743.2 ± 2
8171 kPa	743.4 ± 2
8318 kPa	743.4 ± 2
8332 kPa	743.4 ± 2
8347 kPa	743.4 ± 2
8361 kPa	743.3 ± 2
8376 kPa	743.4 ± 2
8392 kPa	743.5 ± 2
8412 kPa	743.4 ± 2
8430 kPa	743.4 ± 2
8446 kPa	743.4 ± 2
8462 kPa	743.4 ± 2
8478 kPa	743.5 ± 2
8497 kPa	743.6 ± 2
8513 kPa	743.5 ± 2
8529 kPa	743.6 ± 2
8546 kPa	743.5 ± 2
8563 kPa	743.6 ± 2
8580 kPa	743.5 ± 2
8596 kPa	743.5 ± 2
8612 kPa	743.6 ± 2
8631 kPa	743.7 ± 2
8648 kPa	743.7 ± 2
8660 kPa	743.6 ± 2
8677 kPa	743.6 ± 2
8695 kPa	743.6 ± 2
8706 kPa	743.7 ± 2
8720 kPa	743.7 ± 2
8735 kPa	743.8 ± 2
8747 kPa	743.7 ± 2
8762 kPa	743.7 ± 2
8774 kPa	743.8 ± 2
8790 kPa	743.7 ± 2
8804 kPa	743.7 ± 2
8818 kPa	743.6 ± 2
8832 kPa	743.9 ± 2
8862 kPa	743.6 ± 2
8890 kPa	743.7 ± 2
9095 kPa	743.9 ± 2
9109 kPa	743.9 ± 2
9124 kPa	744 ± 2
9134 kPa	743.9 ± 2
9147 kPa	743.8 ± 2
9162 kPa	744 ± 2
9174 kPa	744 ± 2
9189 kPa	743.9 ± 2
9203 kPa	744.1 ± 2
9220 kPa	744 ± 2
9233 kPa	744.1 ± 2
9250 kPa	744.1 ± 2
9261 kPa	744 ± 2
9274 kPa	744.1 ± 2
9287 kPa	744 ± 2
9304 kPa	744 ± 2
9315 kPa	744 ± 2
9326 kPa	744.1 ± 2
9337 kPa	744.2 ± 2
9354 kPa	744.1 ± 2
9373 kPa	744.2 ± 2
9384 kPa	744.1 ± 2
9396 kPa	744.1 ± 2
9406 kPa	744.2 ± 2
9419 kPa	744.2 ± 2
9429 kPa	744.2 ± 2
9442 kPa	744 ± 2
9452 kPa	744.2 ± 2
9464 kPa	744.2 ± 2
9476 kPa	744.2 ± 2
9488 kPa	744.1 ± 2
9499 kPa	744.1 ± 2
9517 kPa	744.3 ± 2
9532 kPa	744.2 ± 2
9543 kPa	744.3 ± 2
9556 kPa	744.2 ± 2
9564 kPa	744.3 ± 2
9577 kPa	744.1 ± 2
9588 kPa	744.2 ± 2
9597 kPa	744.3 ± 2
9605 kPa	744.2 ± 2
9614 kPa	744.3 ± 2
9623 kPa	744.3 ± 2
9633 kPa	744.3 ± 2
9642 kPa	744.3 ± 2
9651 kPa	744.3 ± 2
9663 kPa	744.4 ± 2
9675 kPa	744.4 ± 2
9685 kPa	744.4 ± 2
9695 kPa	744.3 ± 2
9704 kPa	744.3 ± 2
9726 kPa	744.3 ± 2
9736 kPa	744.5 ± 2
9746 kPa	744.3 ± 2
9758 kPa	744.3 ± 2
9766 kPa	744.3 ± 2
9777 kPa	744.4 ± 2
9784 kPa	744.2 ± 2
9795 kPa	744.3 ± 2
9803 kPa	744.3 ± 2
9814 kPa	744.5 ± 2
9822 kPa	744.5 ± 2
9835 kPa	744.4 ± 2
9845 kPa	744.4 ± 2
9855 kPa	744.5 ± 2
9870 kPa	744.4 ± 2
9880 kPa	744.4 ± 2
9892 kPa	744.5 ± 2
9905 kPa	744.5 ± 2
9914 kPa	744.5 ± 2
9923 kPa	744.5 ± 2
9931 kPa	744.5 ± 2
9940 kPa	744.5 ± 2
9949 kPa	744.5 ± 2
9961 kPa	744.5 ± 2
9973 kPa	744.5 ± 2
9982 kPa	744.6 ± 2
9992 kPa	744.5 ± 2
10001 kPa	744.6 ± 2
10013 kPa	744.5 ± 2
10022 kPa	744.5 ± 2
10032 kPa	744.6 ± 2
10042 kPa	744.5 ± 2
10056 kPa	744.6 ± 2
10066 kPa	744.7 ± 2
10076 kPa	744.6 ± 2
10086 kPa	744.5 ± 2
10097 kPa	744.5 ± 2
10108 kPa	744.5 ± 2
10119 kPa	744.6 ± 2
10131 kPa	744.6 ± 2
10144 kPa	744.6 ± 2
10160 kPa	744.6 ± 2
10170 kPa	744.6 ± 2
10185 kPa	744.6 ± 2
10195 kPa	744.6 ± 2
10205 kPa	744.6 ± 2
10215 kPa	744.7 ± 2
10224 kPa	744.7 ± 2
10234 kPa	744.6 ± 2
10242 kPa	744.7 ± 2
10252 kPa	744.7 ± 2
10263 kPa	744.8 ± 2
10274 kPa	744.8 ± 2
10285 kPa	744.6 ± 2
10295 kPa	744.7 ± 2
10305 kPa	744.7 ± 2
10317 kPa	744.7 ± 2
10331 kPa	744.7 ± 2
10342 kPa	744.8 ± 2
10353 kPa	744.7 ± 2
10374 kPa	744.8 ± 2
10384 kPa	744.8 ± 2
10397 kPa	744.8 ± 2
10407 kPa	744.8 ± 2
10445 kPa	744.8 ± 2
10457 kPa	745 ± 2
10500 kPa	744.9 ± 2
10514 kPa	744.9 ± 2
10540 kPa	744.9 ± 2
10683 kPa	745 ± 2
10698 kPa	745.1 ± 2
10709 kPa	745 ± 2
10720 kPa	745.1 ± 2
10735 kPa	745.1 ± 2
10744 kPa	745 ± 2
10761 kPa	745 ± 2
10780 kPa	745 ± 2
10791 kPa	745.2 ± 2
10802 kPa	745.1 ± 2
10816 kPa	745.1 ± 2
10830 kPa	745 ± 2
10841 kPa	745.1 ± 2
10852 kPa	745.2 ± 2
10867 kPa	745.1 ± 2
10880 kPa	745.2 ± 2
10894 kPa	745.2 ± 2
10907 kPa	745.1 ± 2
10924 kPa	745.1 ± 2
10938 kPa	745.2 ± 2
10953 kPa	745.3 ± 2
10965 kPa	745.2 ± 2
10983 kPa	745.2 ± 2
11010 kPa	745.1 ± 2
11026 kPa	745.2 ± 2
11036 kPa	745.2 ± 2
11049 kPa	745.3 ± 2
11068 kPa	745.2 ± 2
11079 kPa	745.3 ± 2
11097 kPa	745.2 ± 2
11109 kPa	745.3 ± 2
11124 kPa	745.3 ± 2
11134 kPa	745.3 ± 2
11149 kPa	745.3 ± 2
11159 kPa	745.2 ± 2
11173 kPa	745.3 ± 2
11183 kPa	745.5 ± 2
11197 kPa	745.3 ± 2
11207 kPa	745.3 ± 2
11227 kPa	745.3 ± 2
11242 kPa	745.4 ± 2
11258 kPa	745.5 ± 2
11268 kPa	745.4 ± 2
11284 kPa	745.4 ± 2
11299 kPa	745.5 ± 2
11309 kPa	745.4 ± 2
11322 kPa	745.4 ± 2
11339 kPa	745.5 ± 2
11351 kPa	745.5 ± 2
11366 kPa	745.5 ± 2
11378 kPa	745.4 ± 2
11399 kPa	745.5 ± 2
11416 kPa	745.6 ± 2
